Reference: ChEMBL document CHEMBL6096703 (J Med Chem, 2025)
Activity calls are given as the source filed them. The rule behind the calls is not given here.

Assays:
[1] = Cmax in male Balb/c mouse at 1 mg/kg, po measured upto 96 hrs by LC-MS/MS analysis; type: ADME, organism-based; details: in vivo
[2] = Sub-acute toxicity in Kunming mouse assessed as change UREAL level at 100 to 300 mg/kg administered via gavage for 14 days; type: organism-based; details: in vivo, po, 336 h, dose 100-300 mg/kg, time 14 day
[3] = Acute toxicity in Kunming mouse assessed as change in cellular morphology of liver at 100 mg/kg administered once every other day via gavage for 14 days by H and E staining based analysis; type: organism-based; details: in vivo, po, 336 h, time 14 day
MDA-MB-436 [4] = assay: Antitumor activity against luciferase tagged human MDA-MB-436 cells xenografted in female NOD-SCID mouse assessed as tumor regression by measuring bioluminescence signal administered orally once a day for 34 days by bioluminescence imaging analysis; type: functional, cell-based; details: dose 3-10 mg/kg, route po, time 34.0 day
[5] = Half life in male Balb/c mouse at 1 mg/kg, iv measured upto 96 hrs by LC-MS/MS analysis; type: ADME, organism-based; details: in vivo, iv, 1 mg/kg, 96 h
[6] = Tmax in rat at 2.5 mg/kg, po measured upto 96 hrs by LC-MS/MS analysis; type: ADME, organism-based; details: in vivo
MDA-MB-436 [7] = assay: Induction of DNA damage in human MDA-MB-436 cells assessed as increase in tail intensity at 100 to 1000 nM incubated for 3 days by PI staining based fluorescence microscopic analysis; type: functional, cell-based; details: dose 100-1000 nM, time 3.0 day
[8] = Acute toxicity in Kunming mouse assessed as change in heart structure at 300 mg/kg administered via gavage for 14 days by H and E staining based analysis; type: organism-based; details: in vivo, po, 336 h, time 14 day
[9] = Acute toxicity in Kunming mouse assessed as change in kidney structure at 300 mg/kg administered via gavage for 14 days by H and E staining based analysis; type: organism-based; details: in vivo, po, 336 h, time 14 day
[10] = Acute toxicity in Kunming mouse assessed as change in cellular morphology of spleen at 100 mg/kg administered once every other day via gavage for 14 days by H and E staining based analysis; type: organism-based; details: in vivo, po, 336 h, time 14 day
[11] = target: Poly [ADP-ribose] polymerase 1 (Homo sapiens, UniProt P09874); assay: Inhibition of PARP1 (unknown origin) at 1 nM preincubated with compound for 10 mins followed by DNA and NAD+ addition and measured after 60 mins by chemiluminescence based envision reader analysis relative to control; details: time 70.0 min
Poly [ADP-ribose] polymerase 1, sequence (P09874 whole entry): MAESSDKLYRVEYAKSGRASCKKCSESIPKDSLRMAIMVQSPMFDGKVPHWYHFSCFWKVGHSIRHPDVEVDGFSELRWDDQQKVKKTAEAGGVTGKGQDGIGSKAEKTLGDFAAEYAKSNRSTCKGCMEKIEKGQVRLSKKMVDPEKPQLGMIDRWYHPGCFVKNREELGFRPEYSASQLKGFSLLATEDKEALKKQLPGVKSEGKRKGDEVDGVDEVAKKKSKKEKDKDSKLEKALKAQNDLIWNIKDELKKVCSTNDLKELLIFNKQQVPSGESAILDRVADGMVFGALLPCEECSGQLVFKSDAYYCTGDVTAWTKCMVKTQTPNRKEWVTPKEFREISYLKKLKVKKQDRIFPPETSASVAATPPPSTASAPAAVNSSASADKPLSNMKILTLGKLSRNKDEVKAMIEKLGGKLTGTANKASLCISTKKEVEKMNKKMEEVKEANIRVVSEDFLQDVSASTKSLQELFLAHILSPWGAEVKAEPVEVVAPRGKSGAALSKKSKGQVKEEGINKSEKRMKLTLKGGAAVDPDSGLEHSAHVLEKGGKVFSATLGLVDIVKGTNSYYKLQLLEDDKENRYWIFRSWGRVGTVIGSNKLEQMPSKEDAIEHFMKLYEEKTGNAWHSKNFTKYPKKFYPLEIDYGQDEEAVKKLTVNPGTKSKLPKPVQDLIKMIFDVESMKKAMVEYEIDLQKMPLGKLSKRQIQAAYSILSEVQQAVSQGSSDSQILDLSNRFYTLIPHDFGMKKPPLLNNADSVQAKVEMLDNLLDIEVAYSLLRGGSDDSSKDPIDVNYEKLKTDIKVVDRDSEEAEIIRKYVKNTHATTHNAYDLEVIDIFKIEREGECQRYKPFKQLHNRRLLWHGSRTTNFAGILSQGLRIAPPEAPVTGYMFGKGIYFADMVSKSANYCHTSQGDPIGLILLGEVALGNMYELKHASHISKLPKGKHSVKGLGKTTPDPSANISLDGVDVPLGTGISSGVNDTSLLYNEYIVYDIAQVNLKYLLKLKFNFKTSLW

[12] = Toxicity in female NOD/SCID mouse xenografted with human MDA-MB-436 cells assessed as histological changes in kidney at 3 mg/kg, po administered once every other day for 28 days by H and E staining based analysis; type: organism-based; details: in vivo, 672 h, time 28 day
[13] = AUC(0 to t) in male Balb/c mouse at 1 mg/kg, po measured upto 96 hrs by LC-MS/MS analysis; type: ADME, organism-based; details: in vivo, po, 1 mg/kg, 96 h
MDA-MB-436 [14] = assay: Induction of cell cycle arrest in human MDA-MB-436 cells assessed as accumulation of cells at G2/M phase at 100 nM incubated for 3 days by PI staining based flow cytometric analysis (Rvb =24.88%); type: functional; details: time 3 day
[15] = AUC(0 to t) in male Balb/c mouse at 1 mg/kg, iv measured upto 96 hrs by LC-MS/MS analysis; type: ADME, organism-based; details: in vivo, iv, 1 mg/kg, 96 h
[16] = Sub-acute toxicity in Kunming mouse assessed as change ALB2 level at 30 to 100 mg/kg administered via gavage once every other day for 14 days; type: organism-based; details: in vivo, po, 336 h, dose 30-100 mg/kg, time 14 day
MDA-MB-436 [17] = assay: Induction of apoptosis in human MDA-MB-436 cells assessed as early apoptotic cells at 1 nM incubated for 3 days by Annexin V/ PI staining based flow cytometry (reference value: 12.8%); type: functional; details: time 3 day
[18] = Sub-acute toxicity in Kunming mouse assessed as change ASTL level at 100 to 300 mg/kg administered via gavage for 14 days; type: organism-based; details: in vivo, po, 336 h, dose 100-300 mg/kg, time 14 day
DLD-1 [19] = assay: Induction of DNA damage in BRCA2 knockout human DLD-1 cells assessed as increase in tail intensity at 100 to 1000 nM incubated for 3 days by PI staining based fluorescence microscopic analysis; type: functional, cell-based; details: dose 100-1000 nM, time 3.0 day
[20] = Half life in rat at 2.5 mg/kg, iv measured upto 96 hrs by LC-MS/MS analysis; type: ADME, organism-based; details: in vivo
[21] = Clearance in rat at 2.5 mg/kg, iv measured upto 96 hrs by LC-MS/MS analysis; type: ADME, organism-based; details: in vivo
[22] = Apparent volume of distribution in male Balb/c mouse at 1 mg/kg, iv measured upto 96 hrs by LC-MS/MS analysis; type: ADME, organism-based; details: in vivo, iv, 1 mg/kg, 96 h
[23] = AUC(0 to t) in rat at 2.5 mg/kg, iv measured upto 96 hrs by LC-MS/MS analysis; type: ADME, organism-based; details: in vivo
DLD-1 [24] = assay: Inhibition of colony formation in BRCA2 knockout human DLD-1 cells assessed as reduction in survival rate incubated for 10 days by crystal violet staining based assay; type: functional, cell-based; details: dose 0.1-100 nM, time 10.0 day
[25] = Toxicity in female NOD/SCID mouse xenografted with human MDA-MB-436 cells assessed as histological changes in spleen at 3 mg/kg, po administered once every other day for 28 days by H and E staining based analysis; type: organism-based; details: in vivo, 672 h, time 28 day
[26] = Sub-acute toxicity in Kunming mouse assessed as change CREA2 level at 100 to 300 mg/kg administered via gavage for 14 days; type: organism-based; details: in vivo, po, 336 h, dose 100-300 mg/kg, time 14 day
[27] = Oral bioavailability in male Balb/c mouse at 1 mg/kg measured upto 96 hrs by LC-MS/MS analysis; type: ADME, organism-based; details: in vivo
[28] = Acute toxicity in Kunming mouse assessed as change in body weight at 100 to 300 mg/kg administered orally via gavage for 14 days; type: organism-based; details: in vivo, po, 336 h, dose 100-300 mg/kg, time 14 day
[29] = Toxicity in female NOD/SCID mouse xenografted with human MDA-MB-436 cells assessed as change in body weight at 0.3 to 3 mg/kg, po administered once every other day for 28 days and measured every 2 days; type: organism-based; details: in vivo, 672 h, dose 0.3-3 mg/kg, time 28 day
MDA-MB-436 [30] = assay: Antitumor activity against human MDA-MB-436 cells xenografted in female NOD/SCID mouse assessed as tumor growth inhibition at 0.3 mg/kg, po administered once every other day for 28 days relative to control; type: functional; set-up: scale not given: the % may be the effect or the level left; details: time 28 day
[31] = target: Poly [ADP-ribose] polymerase 2 (Homo sapiens, UniProt Q9UGN5); assay: Inhibition of PARP2 in PARP1 knockout human A549 cells preincubated with compound for 1 hr followed by H2O2 addition and measured after 5 mins by selective targeting PARylation inhibition assay; type: cell-based
Poly [ADP-ribose] polymerase 2, sequence (Q9UGN5 whole entry): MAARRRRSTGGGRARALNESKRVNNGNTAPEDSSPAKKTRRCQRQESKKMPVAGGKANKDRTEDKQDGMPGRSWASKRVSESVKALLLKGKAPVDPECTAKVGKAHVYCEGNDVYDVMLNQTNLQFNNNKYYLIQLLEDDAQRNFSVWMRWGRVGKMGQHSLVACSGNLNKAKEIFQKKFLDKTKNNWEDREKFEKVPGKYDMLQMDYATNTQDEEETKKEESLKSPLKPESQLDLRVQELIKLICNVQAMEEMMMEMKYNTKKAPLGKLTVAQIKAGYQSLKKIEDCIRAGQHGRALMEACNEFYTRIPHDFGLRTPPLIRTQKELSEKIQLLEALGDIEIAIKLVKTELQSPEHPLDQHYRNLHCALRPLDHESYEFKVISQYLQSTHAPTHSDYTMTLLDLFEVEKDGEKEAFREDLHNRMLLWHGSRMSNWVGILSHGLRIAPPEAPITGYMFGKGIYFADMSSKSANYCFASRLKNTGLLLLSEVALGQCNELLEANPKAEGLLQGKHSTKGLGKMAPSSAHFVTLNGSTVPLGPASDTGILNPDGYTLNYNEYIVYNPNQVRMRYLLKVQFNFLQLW

MDA-MB-436 [32] = assay: Induction of cell cycle arrest in human MDA-MB-436 cells assessed as accumulation of cells at S phase at 1 nM incubated for 3 days by PI staining based flow cytometric analysis (Rvb =18.94%); type: functional; details: time 3 day
MDA-MB-436 [33] = assay: Antitumor activity against human MDA-MB-436 cells xenografted in female NOD/SCID mouse assessed as tumor regression rate at 3 mg/kg, po administered once every other day for 28 days relative to control; type: functional; details: time 28 day
[34] = Acute toxicity in Kunming mouse assessed as mortality at 30 to 100 mg/kg administered via gavage once every other day for 14 days; type: organism-based; details: in vivo, po, 336 h, dose 30-100 mg/kg, time 14 day
[35] = Clearance in male Balb/c mouse at 1 mg/kg, po measured upto 96 hrs by LC-MS/MS analysis; type: ADME, organism-based; details: in vivo, po, 1 mg/kg, 96 h

Question: Which results are given for CCc1cc2ncc(CN3CC=C(c4ccc(C#N)cn4)CC3)cc2[nH]c1=O?
Answer: Cmax [1]: 6.63 µg/mL; Activity [2]: Non-toxic; Activity [3]: Non-toxic; Activity (MDA-MB-436 [4]): Dose-dependent-effect; t1/2 [5]: 107.53 h; Tmax [6]: 8 h; Activity (MDA-MB-436 [7]): Active; Activity [8]: Non-toxic; Activity [9]: Non-toxic; Activity [10]: Non-toxic; inhibition [11]: 93.6%; Activity [12]: Non-toxic; AUCt [13]: 787.38372 µg·h/mL; Activity (MDA-MB-436 [14]): 37.31%; AUCt [15]: 897.43221 µg·h/mL; Activity [16]: Non-toxic; Activity (MDA-MB-436 [17]): 17%; Activity [18]: Non-toxic; Activity (DLD-1 [19]): Active; half-life [20]: 27.8 h; clearance [21]: 0.01 L/h/kg; Vz [22]: 0.16 L/kg; AUC(0-t) at 96 h [23]: 510 µg·h/mL; inhibition (DLD-1 [24]): Dose-dependent-effect; Activity [25]: Non-toxic; Activity [26]: Non-toxic; bioavailability [27]: 87.7%; Activity [28]: Non-toxic; Activity [29]: Non-toxic; Activity (MDA-MB-436 [30]): 89.9%; IC50 [31]: 5.19 µM; Activity (MDA-MB-436 [32]): 14.99%; Activity (MDA-MB-436 [33]): 79.8%; Activity [34]: Non-toxic; CL [35]: 0.01 L/h/kg
